Measured values published in US20250186405A1, “Compound For Use In Treating Narcolepsy” (Alkermes, Inc., priority 2023, published 2025).
Read-outs that look alike come from different tables or passages of the source.

Legend:
[1] = tested on: healthy adult subjects; conditions: human, in vivo
Experimental: Part 1 of the study is a SAD evaluation in healthy subjects consisting of 6 cohorts: Cohorts 1-6 received powder-in-capsule or matching placebo. There were approximately 8 subjects per cohort. Dose levels were as follows:
No food was given for at least 4 hours after dose administration. Water was allowed ad libitum except for the time 1 hour before and 1 hour after study drug administration. Safety assessments including AEs, safety ECGs, vital signs, and clinical laboratory tests were conducted, and plasma PK samples were collected.
Adverse events (AEs) and serious adverse events (SAEs) were monitored continuously until the completion of the study.

[2] = Part 4 NT1: plasma pharmacokinetics, single doses; format: in vivo; conditions: human, oral; for Cmax / AUC(0-t): geometric mean
Experimental: Subjects were randomized to 1 of 4 sequences.
(§1) Blood samples (up to 5 mL per sample) were collected for PK analysis of Compound A and its metabolite(s). The actual time of sample collection was recorded. The PK samples of the subjects randomized to placebo treatment were not analyzed. Any remaining plasma PK samples were used to explore the presence of any additional metabolites and/or biomarkers.
(§2) Plasma and urine concentrations of Compound A and its metabolite(s) were measured using a validated high-performance liquid chromatography with tandem mass spectrometry.
(§3) The PK population was used for summaries of plasma Compound A and its metabolite(s) concentrations and for analyses, summaries, and listing of PK parameters. Dose proportionality for Cmax, AUC0-t, and AUC0-∞ was evaluated using a linear model of logarithmically transformed values to assess the slope parameter, and the 95% CI for the slope was estimated. Where a 95% CI of the slope includes 1, it was considered as evidence of dose proportionality for that PK parameter.

[3] = Part 1 SAD: plasma pharmacokinetics after single oral dose; format: in vivo, human; conditions: for CL/F / AUC(0-t) / Cmax / AUC(0-inf) / half-life / Vd/F / concentration at 8 h: geometric mean; for AUC(0-t) / Cmax / AUC(0-inf) / half-life / Vd/F / concentration at 8 h / Tmax: human, plasma; for Vd/F: read-out: Vz/F; for concentration at 8 h: read-out: C8 (concentration at 8-hour post dose)
Experimental: There were approximately 8 subjects per cohort. Dose levels were as follows:
as §1, §2
The plasma PK parameters of Compound A and its metabolite(s) were determined from the plasma concentration-time profiles for all evaluable subjects. Actual sampling times, rather than scheduled sampling times, were used in all computations involving sampling times. The below lower limit of quantitation concentrations were set to zero prior to PK parameter estimation.
as §3, with “Where the” for “Where a”

[4] = 1 mg single dose (low end of 1 to 50 mg)
[5] = 50 mg single dose (high end of 1 to 50 mg)

With CS(=O)(=O)N[C@H]1CCCN2C(=O)COc3ccccc3C3CCC(CC3)OCC12 (stereo partly drawn) [Compound A, N-[(4S,4aR,7α,10α)-1,2,3,4,4a,5,7,8,9,10,16,17-dodecahydro-17-oxo-7,10-ethanopyrido[1,2-d][1,7,4]benzodioxaazacyclotridecin-4-yl]methanesulfonamide] as the compound, how does the “TEAE COVID-19” value [1] read?
The value was 3 n.

And the Tmax ([2]; 1 mg, NT1, 1 mg single dose, median, N = 3, read-out: Tmax)?
The Tmax was 1.5 h.

What about the Tmax ([2]; 3 mg, NT1, 3 mg single dose, median, N = 4, read-out: Tmax) of the same compound?
Its Tmax is 1.5 h.

What about the Tmax ([2]; 8 mg, NT1, 8 mg single dose, median, N = 3, read-out: Tmax) of the same compound?
The Tmax was 3 h.

And the Tmax ([2]; 8 mg, NT1, single dose 1, 3 and 8 mg (range 0.5 to 4.0), read-out: median Tmax)?
Its Tmax is 1.5 h.

And the Cmax ([2]; NT1, 1 mg single dose, N = 3)?
Its Cmax is 4.39 ng/mL.

What about the AUC(0-t) ([2]; NT1, 1 mg single dose, N = 3, read-out: AUC0-24) of the same compound?
Its AUC(0-t) is 19.5 ng·h/mL.

What about the Cmax ([2]; NT1, 3 mg single dose, N = 4) of the same compound?
The Cmax was 11.6 ng/mL.

What about the AUC(0-t) ([2]; NT1, 3 mg single dose, N = 4, read-out: AUC0-24) of the same compound?
Its AUC(0-t) is 59.1 ng·h/mL.

What about the Cmax ([2]; NT1, 8 mg single dose, N = 3) of the same compound?
The Cmax was 27.9 ng/mL.

What about the AUC(0-t) ([2]; NT1, 8 mg single dose, N = 3, read-out: AUC0-24) of the same compound?
The AUC(0-t) was 169 ng·h/mL.

What about the “geometric mean AUC0-inf/D” value [3, 4] of the same compound?
Its value is 11.6.

What about the “geometric mean Cmax/D” value [3, 4] of the same compound?
Its value is 3.2.

What about the CL/F ([3]; 1 mg single dose, N = 5) of the same compound?
The CL/F was 86.0 L/h.

And the CL/F ([3]; 3 mg single dose, N = 3)?
Its CL/F is 95.6 L/h.

What about the CL/F ([3]; 8 mg single dose, N = 4) of the same compound?
The CL/F was 96.4 L/h.

What about the CL/F ([3]; 15 mg single dose, N = 5) of the same compound?
Its CL/F is 89.8 L/h.

What about the CL/F ([3]; 25 mg single dose) of the same compound?
The CL/F was 91.1 L/h.

What about the “geometric mean AUC0-inf/D” value [3, 5] of the same compound?
The value was 10.1.

What about the “geometric mean Cmax/D” value [3, 5] of the same compound?
The value was 0.59.

And the CL/F ([3]; 50 mg single dose, N = 2)?
The CL/F was 99.3 L/h.

What about the AUC(0-t) ([3]; oral, 1 mg single dose) of the same compound?
Its AUC(0-t) is 12.3 ng·h/mL.

And the Cmax ([3]; oral, 1 mg single dose)?
Its Cmax is 3.23 ng/mL.

And the AUC(0-inf) ([3]; oral, 1 mg single dose, N = 5)?
Its AUC(0-inf) is 11.6 ng·h/mL.

And the half-life ([3]; oral, 1 mg single dose, N = 5)?
Its half-life is 2.79 h.

What about the Vd/F ([3]; oral, 1 mg single dose, N = 5) of the same compound?
The Vd/F was 346 L.

And the concentration at 8 h ([3]; oral, 1 mg single dose)?
The concentration at 8 h was 0.337 ng/mL.

And the Tmax ([3]; oral, 1 mg single dose, median, read-out: Tmax)?
Its Tmax is 1.5 h.

And the AUC(0-t) ([3]; oral, 3 mg single dose)?
The AUC(0-t) was 36.6 ng·h/mL.

What about the Cmax ([3]; oral, 3 mg single dose) of the same compound?
The Cmax was 6.15 ng/mL.

What about the AUC(0-inf) ([3]; oral, 3 mg single dose, N = 3) of the same compound?
The AUC(0-inf) was 31.4 ng·h/mL.

What about the half-life ([3]; oral, 3 mg single dose, N = 3) of the same compound?
The half-life was 2.31 h.

And the Vd/F ([3]; oral, 3 mg single dose, N = 3)?
The Vd/F was 318 L.

What about the concentration at 8 h ([3]; oral, 3 mg single dose) of the same compound?
Its concentration at 8 h is 1.24 ng/mL.

And the Tmax ([3]; oral, 3 mg single dose, median, read-out: Tmax)?
The Tmax was 1.5 h.

And the AUC(0-t) ([3]; oral, 8 mg single dose)?
The AUC(0-t) was 81.3 ng·h/mL.

And the Cmax ([3]; oral, 8 mg single dose)?
Its Cmax is 11.5 ng/mL.

What about the AUC(0-inf) ([3]; oral, 8 mg single dose, N = 4) of the same compound?
Its AUC(0-inf) is 83 ng·h/mL.

What about the half-life ([3]; oral, 8 mg single dose, N = 4) of the same compound?
Its half-life is 16 h.

And the Vd/F ([3]; oral, 8 mg single dose, N = 4)?
Its Vd/F is 2220 L.

And the concentration at 8 h ([3]; oral, 8 mg single dose)?
The concentration at 8 h was 2.47 ng/mL.

And the Tmax ([3]; oral, 8 mg single dose, median, read-out: Tmax)?
Its Tmax is 2 h.

And the AUC(0-t) ([3]; oral, 15 mg single dose)?
Its AUC(0-t) is 165 ng·h/mL.

And the Cmax ([3]; oral, 15 mg single dose)?
Its Cmax is 22.1 ng/mL.

And the AUC(0-inf) ([3]; oral, 15 mg single dose, N = 5)?
Its AUC(0-inf) is 167 ng·h/mL.

What about the half-life ([3]; oral, 15 mg single dose, N = 5) of the same compound?
The half-life was 10.1 h.

And the Vd/F ([3]; oral, 15 mg single dose, N = 5)?
Its Vd/F is 1300 L.

And the concentration at 8 h ([3]; oral, 15 mg single dose)?
The concentration at 8 h was 4.07 ng/mL.

What about the Tmax ([3]; oral, 15 mg single dose, median, read-out: Tmax) of the same compound?
Its Tmax is 2.5 h.

What about the AUC(0-inf) ([3]; oral, 25 mg single dose) of the same compound?
The AUC(0-inf) was 274 ng·h/mL.

What about the AUC(0-t) ([3]; oral, 25 mg single dose) of the same compound?
Its AUC(0-t) is 241 ng·h/mL.

What about the Cmax ([3]; oral, 25 mg single dose) of the same compound?
Its Cmax is 23.1 ng/mL.

What about the half-life ([3]; oral, 25 mg single dose) of the same compound?
The half-life was 12.5 h.

What about the concentration at 8 h ([3]; oral, 25 mg single dose) of the same compound?
Its concentration at 8 h is 5.7 ng/mL.

And the Vd/F ([3]; oral, 25 mg single dose)?
Its Vd/F is 1650 L.

What about the Tmax ([3]; oral, 25 mg single dose, median, read-out: Tmax) of the same compound?
The Tmax was 1 h.

And the AUC(0-t) ([3]; oral, 50 mg single dose)?
The AUC(0-t) was 357 ng·h/mL.

And the Cmax ([3]; oral, 50 mg single dose)?
Its Cmax is 29.3 ng/mL.

And the AUC(0-inf) ([3]; oral, 50 mg single dose, N = 2)?
The AUC(0-inf) was 503 ng·h/mL.

What about the half-life ([3]; oral, 50 mg single dose, N = 2) of the same compound?
Its half-life is 7.34 h.

What about the Vd/F ([3]; oral, 50 mg single dose, N = 2) of the same compound?
Its Vd/F is 1050 L.

What about the concentration at 8 h ([3]; oral, 50 mg single dose) of the same compound?
Its concentration at 8 h is 7.83 ng/mL.

And the Tmax ([3]; oral, 50 mg single dose, median, read-out: Tmax)?
The Tmax was 2 h.

And the Tmax ([3]; single oral doses 1 to 50 mg, fasted subjects, read-out: median Tmax, range across doses)?
Its Tmax is 1 to 2.5 h.

And the “fold change in geometric mean AUC (AUClast) for 50-fold change in dose” value ([3]; single doses 1 to 50 mg)?
Its value is 29 fold.

What about the “fold change in geometric mean Cmax for 50-fold change in dose” value ([3]; single doses 1 to 50 mg) of the same compound?
Its value is 9 fold.
